Source: patent US8017612B2, “Piperazine compound and use thereof as a HCV polymerase inhibitor” (priority 2006, dated 2011)

What was measured:
[1] = target: T1, HCV polymerase (NS5B) type 1b (Hepatitis C virus genotype 1b, UniProt P26663); assay: Assay of enzyme (HCV polymerase) inhibitory activity, type 1b enzyme; assay type: biochemical, HCV BK strain (type 1b); details: HCV polymerase inhibitory activity (IC50), 1b, type 1b enzyme 0.5 μg/ml, 25° C., 60 min
T1 construct: a region encoding NS5B (J Virol 1991 March, 65(3), 1105-13, 544 amino acids after deletion of 47 amino acids on the C-terminal); 6xHis (C); made in house; host or cells: Escherichia coli
How it was run: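 His-tagged, C-terminally truncated NS5B (BK strain, 1b; 0.5 μg/ml) incubated with compound 60 min at 25 °C on 3′UTR-derived substrate RNA (5 μg/ml), 50 μM ATP/GTP/CTP, 2 μM UTP plus [3H]UTP, pH 7.5. Acid-precipitated RNA counted; IC50 from radioactivity with and without compound.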

[2] = target: T2, HCV polymerase (NS5B) type 1a (Hepatitis C virus genotype 1a, UniProt P26664); assay: Assay of enzyme (HCV polymerase) inhibitory activity, type 1a enzyme; assay type: biochemical, HCV type 1a (cloned from the blood of patients); details: HCV polymerase inhibitory activity (IC50), 1a, type 1a enzyme 1.5 μg/ml, 25° C., 60 min
T2 construct: made in house; host or cells: Escherichia coli (by the 'similar method' of the 1b enzyme)
How it was run: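 His-tagged NS5B, C-terminal 47 residues deleted, type 1a at 1.5 μg/ml, with 5 μg/ml HCV 3′UTR substrate RNA, 50 μM ATP/GTP/CTP, 2 μM UTP plus [3H]UTP, pH 7.5 Tris, 5 mM MgCl2; 60 min at 25° C. TCA-precipitated RNA counted by scintillation; IC50 from radioactivity with vs. without compound.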

| SMILES | IC50 [1] | IC50 [2] |
| --- | --- | --- |
| CC(C)c1ccc(CNC(=O)[C@H]2CN(C(=O)Nc3cccc(C(=O)O)c3)CCN2S(=O)(=O)c2ccc(C(F)(F)F)cc2)cc1 [Example 286, 3-{[(R)-3-(4-isopropyl-benzylcarbamoyl)-4-(4-trifluoromethyl-benzenesulfonyl)-piperazine-1-carbonyl]-amino}-benzoic acid] | 100 to 1000 nM | 100 to 1000 nM |
| CCCc1ccc(S(=O)(=O)N2CCN(C(C)=O)C[C@@H]2C(=O)NCc2ccc(C(C)C)cc2)s1 [Example 287, (R)-4-acetyl-1-(5-propyl-thiophene-2-sulfonyl)-piperazine-2-carboxylic acid 4-isopropyl-benzylamide] | < 100 nM | < 100 nM |
| COc1ccc(S(=O)(=O)N2CCN(C(C)=O)C[C@@H]2C(=O)NCc2ccc(C(C)C)cc2)cc1-c1nn[nH]n1 [Example 288, (R)-4-acetyl-1-[4-methoxy-3-(2H-tetrazol-5-yl)-benzenesulfonyl]-piperazine-2-carboxylic acid 4-isopropyl-benzylamide] | 100 to 1000 nM | 100 to 1000 nM |
| CC(=O)N1CCN(S(=O)(=O)c2ccc(CC(=O)O)s2)[C@@H](C(=O)NCc2ccc(C(C)C)cc2)C1 [Example 289, {5-[(R)-4-acetyl-2-(4-isopropyl-benzylcarbamoyl)-piperazine-1-sulfonyl]-thiophen-2-yl}-acetic acid] | > 1000 nM | > 1000 nM |
| CCOC(=O)C(=O)N1CCN(S(=O)(=O)c2ccc(C(F)(F)F)cc2)[C@@H](C(=O)NCc2ccc(C(C)C)cc2)C1 [Example 290, [(R)-3-(4-isopropyl-benzylcarbamoyl)-4-(4-trifluoromethyl-benzenesulfonyl)-piperazin-1-yl]-oxo-acetic acid ethyl ester] | 100 to 1000 nM | > 1000 nM |
| CC(=O)N1CCN(S(=O)(=O)c2ccc(C(C)C)cc2)[C@@H](C(=O)NCc2ccc(C(C)C)cc2C)C1 [Example 291, (R)-4-acetyl-1-(4-isopropyl-benzenesulfonyl)-piperazine-2-carboxylic acid 4-isopropyl-2-methyl-benzylamide] | < 100 nM | < 100 nM |
| CC(=O)N1CCN(S(=O)(=O)c2ccc(C(C)C)cc2)[C@@H](C(=O)NCc2ccc(C(C)C)cc2F)C1 [Example 292, (R)-4-acetyl-1-(4-isopropyl-benzenesulfonyl)-piperazine-2-carboxylic acid 2-fluoro-4-isopropyl-benzylamide] | < 100 nM | 100 to 1000 nM |
| CC(=O)N1CCN(S(=O)(=O)c2ccc(C(C)C)cc2)[C@@H](C(=O)NCc2ccc(C(C)(F)F)cc2)C1 [Example 293, (R)-4-acetyl-1-(4-isopropyl-benzenesulfonyl)-piperazine-2-carboxylic acid 4-(1,1-difluoro-ethyl)-benzylamide] | 100 to 1000 nM | 100 to 1000 nM |
| CCCc1ccc(CNC(=O)[C@H]2CN(C(C)=O)CCN2S(=O)(=O)c2ccc(C(C)C)cc2)cc1 [Example 294, (R)-4-acetyl-1-(4-isopropyl-benzenesulfonyl)-piperazine-2-carboxylic acid 4-propyl-benzylamide] | < 100 nM | < 100 nM |
| CCCc1ccc(S(=O)(=O)N2CCN(C(=O)Nc3ccncc3)C[C@@H]2C(=O)NCc2ccc(C(C)C)cc2)cc1 [Example 295, (R)-4-(4-propyl-benzenesulfonyl)-piperazine-1,3-dicarboxylic acid 3-(4-isopropyl-benzylamide) 1-pyridin-4-ylamide] | < 100 nM | < 100 nM |
| CCCc1ccc(S(=O)(=O)N2CCN(c3nc(C(=O)OCC)cs3)C[C@@H]2C(=O)NCc2ccc(C(C)C)cc2)cc1 [Example 296, 2-[(R)-3-(4-isopropyl-benzylcarbamoyl)-4-(4-propyl-benzenesulfonyl)-piperazin-1-yl]-thiazole-4-carboxylic acid ethyl ester] | < 100 nM | < 100 nM |
